Test results from ChEMBL document CHEMBL1201862, “PubChem BioAssay data set” (2004).
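1) Cells in 96-well plates. 2) Compound, 48 h, 5 concentrations. 3) Linear interpolation between surrounding doses. 4) Unreached endpoint = highest concentration. The concentration for 50% growth inhibition is given as GI50.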 Calls of active or inactive are those of the source. Rule as the data show it: active = GI50 up to about 1.1 µM and inactive = higher.

Key:
Test in all cases: NCI anticancer screen, dose series, 48 h
[1] = tested on: UACC-62
[2] = tested on: SNB-75
[3] = tested on: SK-MEL-2
[4] = tested on: SW-620
[5] = tested on: UO-31
[6] = tested on: HOP-62
[7] = tested on: HT-29
[8] = tested on: MDA-N
[9] = tested on: RXF 393
[10] = tested on: UACC-257
[11] = tested on: EKVX
[12] = tested on: HCT-15
[13] = tested on: DU-145
[14] = tested on: OVCAR-8
[15] = tested on: CAKI-1
[16] = tested on: SF-539
[17] = tested on: NCI/ADR-RES
[18] = tested on: HL-60
[19] = tested on: BT-549
[20] = tested on: OVCAR-3
[21] = tested on: SN12C
[22] = tested on: PC-3
[23] = tested on: MDA-MB-435
[24] = tested on: 786-0
[25] = tested on: ACHN
[26] = tested on: A498
[27] = tested on: KM12
[28] = tested on: HOP-92
[29] = tested on: HCT-116
[30] = tested on: M14
[31] = tested on: LOX IMVI
[32] = tested on: OVCAR-4
[33] = tested on: T47D
[34] = tested on: SK-MEL-28
[35] = tested on: SK-MEL-5
[36] = tested on: COLO 205
[37] = tested on: Malme-3M
[38] = tested on: NCI-H522
[39] = tested on: NCI-H23
[40] = tested on: IGROV-1
[41] = tested on: NCI-H226
[42] = tested on: SK-OV-3
[43] = tested on: NCI-H460
[44] = tested on: MOLT-4
[45] = tested on: SNB-19
[46] = tested on: OVCAR-5
[47] = tested on: CCRF-CEM
[48] = tested on: SR
[49] = tested on: MDA-MB-231
[50] = tested on: Hs-578T
[51] = tested on: RPMI-8226
[52] = tested on: TK-10
[53] = tested on: HCC 2998
[54] = tested on: K562
[55] = tested on: A549
[56] = tested on: MCF7
[57] = tested on: SF-268
[58] = tested on: SF-295
[59] = tested on: U-251

COc1cccc(C2c3cc4c(cc3OC(Nc3ccccc3)C2C)OCO4)c1O (stereo not given)
GI50 [1]: 9.02 µM (inactive)
GI50 [2]: 5.6 µM (inactive)
GI50 [3]: 13.9 µM (inactive)
GI50 [4]: 4.88 µM (inactive)
GI50 [5]: 7.06 µM (inactive)
GI50 [6]: 12.9 µM (inactive)
GI50 [7]: 5.74 µM (inactive)
GI50 [8]: 2.42 µM (inactive)
GI50 [9]: 5.05 µM (inactive)
GI50 [10]: 10.9 µM (inactive)
GI50 [11]: 11.1 µM (inactive)
GI50 [12]: 5.62 µM
GI50 [13]: 15.4 µM (inactive)
GI50 [14]: 12.9 µM (inactive)
GI50 [15]: 13.5 µM (inactive)
GI50 [16]: 4.07 µM (inactive)
GI50 [17]: 7.5 µM (inactive)
GI50 [18]: 9.93 µM (inactive)
GI50 [19]: 10.6 µM (inactive)
GI50 [20]: 9.18 µM (inactive)
GI50 [21]: 8.83 µM (inactive)
GI50 [22]: 4.14 µM (inactive)
GI50 [23]: 2.15 µM (inactive)
GI50 [24]: 9.08 µM (inactive)
GI50 [25]: 10.9 µM (inactive)
GI50 [26]: 7.82 µM (inactive)
GI50 [27]: 4.63 µM (inactive)
GI50 [28]: 2.48 µM (inactive)
GI50 [29]: 7.6 µM (inactive)
GI50 [30]: 3.84 µM (inactive)
GI50 [31]: 5.21 µM (inactive)
GI50 [32]: 36.3 µM (inactive)
GI50 [33]: 12.7 µM (inactive)
GI50 [34]: 7.21 µM (inactive)
GI50 [35]: 5.12 µM (inactive)
GI50 [36]: 4.3 µM (inactive)
GI50 [37]: 7.24 µM (inactive)
GI50 [38]: 4.4 µM (inactive)
GI50 [39]: 8.26 µM (inactive)
GI50 [40]: 8.95 µM (inactive)
GI50 [41]: 12 µM (inactive)
GI50 [42]: 10.3 µM (inactive)
GI50 [43]: 4.97 µM (inactive)
GI50 [44]: 3.3 µM (inactive)
GI50 [45]: 15.2 µM (inactive)
GI50 [46]: 30.1 µM (inactive)
GI50 [47]: 2.58 µM (inactive)
GI50 [48]: 3.66 µM (inactive)
GI50 [49]: 12.7 µM (inactive)
GI50 [50]: 5.81 µM (inactive)
GI50 [51]: 6.43 µM (inactive)
GI50 [52]: 15.8 µM (inactive)
GI50 [53]: 11.7 µM (inactive)
GI50 [54]: 2.83 µM (inactive)
GI50 [55]: 4.95 µM (inactive)
GI50 [56]: 6.68 µM (inactive)
GI50 [57]: 12.2 µM (inactive)
GI50 [58]: 5.25 µM (inactive)
GI50 [59]: 5.7 µM (inactive)

CC(C)c1ccc(O)c(=O)c(O)c1.CC(C)c1ccc(O)c(=O)cc1.CC(C)c1cccc(=O)c(O)c1.CC(C)c1ccccc(=O)c1O
GI50 [1]: 0.787 µM (active)
GI50 [2]: 2.02 µM (inactive)
GI50 [3]: 0.204 µM (active)
GI50 [4]: 0.697 µM (active)
GI50 [5]: 0.841 µM (active)
GI50 [6]: 1.24 µM (inactive)
GI50 [7]: 0.509 µM (active)
GI50 [8]: 3.32 µM (inactive)
GI50 [9]: 0.432 µM (active)
GI50 [10]: 0.322 µM (active)
GI50 [11]: 6.15 µM (inactive)
GI50 [12]: 0.198 µM
GI50 [13]: 1.42 µM (inactive)
GI50 [14]: 0.604 µM (active)
GI50 [15]: 1.36 µM (inactive)
GI50 [16]: 0.598 µM (active)
GI50 [17]: 0.42 µM (active)
GI50 [18]: 0.281 µM (active)
GI50 [19]: 4.8 µM (inactive)
GI50 [20]: 0.279 µM (active)
GI50 [21]: 0.998 µM (active)
GI50 [22]: 0.416 µM (active)
GI50 [23]: 2.1 µM (inactive)
GI50 [24]: 0.719 µM (active)
GI50 [25]: 0.47 µM (active)
GI50 [26]: 2.06 µM (inactive)
GI50 [27]: 2.87 µM (inactive)
GI50 [28]: 5.94 µM (inactive)
GI50 [29]: 0.373 µM (active)
GI50 [30]: 1.8 µM (inactive)
GI50 [31]: 0.76 µM (active)
GI50 [32]: 1.11 µM (active)
GI50 [33]: 1.88 µM (inactive)
GI50 [34]: 2.05 µM (inactive)
GI50 [35]: 1.22 µM (inactive)
GI50 [36]: 2.77 µM (inactive)
GI50 [37]: 1.43 µM (inactive)
GI50 [38]: 0.456 µM (active)
GI50 [39]: 0.851 µM (active)
GI50 [40]: 1.36 µM (inactive)
GI50 [41]: 1.76 µM (inactive)
GI50 [42]: 4.37 µM (inactive)
GI50 [43]: 0.191 µM (active)
GI50 [44]: 0.343 µM (active)
GI50 [45]: 3.4 µM (inactive)
GI50 [46]: 3.11 µM (inactive)
GI50 [47]: 0.21 µM (active)
GI50 [48]: 0.262 µM (active)
GI50 [49]: 1.79 µM (inactive)
GI50 [50]: 4.46 µM (inactive)
GI50 [51]: 0.964 µM (active)
GI50 [52]: 0.459 µM (active)
GI50 [53]: 0.304 µM (active)
GI50 [54]: 0.571 µM (active)
GI50 [55]: 1.07 µM (active)
GI50 [56]: 0.935 µM (active)
GI50 [57]: 0.632 µM (active)
GI50 [58]: 1.23 µM (inactive)
GI50 [59]: 0.491 µM (active)

N#Cc1nc(Sc2cnsn2)c(Sc2cnsn2)nc1C#N
GI50 [1]: 17.6 µM (inactive)
GI50 [2]: 22.9 µM (inactive)
GI50 [3]: 21.2 µM (inactive)
GI50 [4]: 2.25 µM (inactive)
GI50 [5]: 9.44 µM (inactive)
GI50 [6]: 18.7 µM (inactive)
GI50 [7]: 20.6 µM (inactive)
GI50 [8]: 20.4 µM (inactive)
GI50 [9]: 5.94 µM (inactive)
GI50 [10]: 13.6 µM (inactive)
GI50 [11]: 10.4 µM (inactive)
GI50 [12]: 6.68 µM
GI50 [13]: 17.1 µM (inactive)
GI50 [14]: 24.5 µM (inactive)
GI50 [15]: 6.47 µM (inactive)
GI50 [16]: 19.4 µM (inactive)
GI50 [17]: 22.8 µM (inactive)
GI50 [18]: 1.95 µM (inactive)
GI50 [19]: 21.4 µM (inactive)
GI50 [20]: 6.79 µM (inactive)
GI50 [21]: 21.4 µM (inactive)
GI50 [22]: 21.6 µM (inactive)
GI50 [23]: 11.5 µM (inactive)
GI50 [24]: 6.78 µM (inactive)
GI50 [25]: 7.1 µM (inactive)
GI50 [26]: 21.8 µM (inactive)
GI50 [27]: 20.7 µM (inactive)
GI50 [28]: 20 µM (inactive)
GI50 [29]: 6.65 µM (inactive)
GI50 [30]: 20.4 µM (inactive)
GI50 [31]: 17.9 µM (inactive)
GI50 [32]: 21.7 µM (inactive)
GI50 [33]: 6.25 µM (inactive)
GI50 [34]: 22.6 µM (inactive)
GI50 [35]: 14.9 µM (inactive)
GI50 [36]: 3.85 µM (inactive)
GI50 [37]: 4.81 µM (inactive)
GI50 [38]: 3.93 µM (inactive)
GI50 [39]: 21.6 µM (inactive)
GI50 [40]: 18.5 µM (inactive)
GI50 [41]: 19.9 µM (inactive)
GI50 [42]: 17.9 µM (inactive)
GI50 [43]: 24.6 µM (inactive)
GI50 [44]: 2.65 µM (inactive)
GI50 [45]: 30 µM (inactive)
GI50 [46]: 18.9 µM (inactive)
GI50 [47]: 0.426 µM (active)
GI50 [48]: 8.91 µM (inactive)
GI50 [49]: 23.9 µM (inactive)
GI50 [50]: 19.1 µM (inactive)
GI50 [51]: 3.5 µM (inactive)
GI50 [52]: 5.12 µM (inactive)
GI50 [53]: 18.7 µM (inactive)
GI50 [54]: 2.9 µM (inactive)
GI50 [55]: 28.6 µM (inactive)
GI50 [56]: 21.9 µM (inactive)
GI50 [57]: 19.4 µM (inactive)
GI50 [58]: 16.6 µM (inactive)
GI50 [59]: 29.4 µM (inactive)

COc1ccc(/C=C2\C[C@H]3[C@@H]4CCC5=C[C@@H](N6CCCC6)CC[C@]5(C)[C@H]4CC[C@]3(C)[C@H]2O)cc1
GI50 [1]: 1.78 µM (inactive)
GI50 [2]: 4.97 µM (inactive)
GI50 [3]: 1.88 µM (inactive)
GI50 [4]: 2.3 µM (inactive)
GI50 [5]: 1.72 µM (inactive)
GI50 [6]: 1.66 µM (inactive)
GI50 [7]: 0.728 µM (active)
GI50 [8]: 1.57 µM (inactive)
GI50 [9]: 1.52 µM (inactive)
GI50 [10]: 1.4 µM (inactive)
GI50 [11]: 3.81 µM (inactive)
GI50 [12]: 1.4 µM
GI50 [13]: 4.91 µM (inactive)
GI50 [14]: 3.52 µM (inactive)
GI50 [15]: 3.52 µM (inactive)
GI50 [16]: 2.15 µM (inactive)
GI50 [17]: 4.39 µM (inactive)
GI50 [18]: 1.95 µM (inactive)
GI50 [19]: 5.85 µM (inactive)
GI50 [20]: 2.64 µM (inactive)
GI50 [21]: 4.8 µM (inactive)
GI50 [22]: 2.25 µM (inactive)
GI50 [23]: 1.93 µM (inactive)
GI50 [24]: 1.53 µM (inactive)
GI50 [25]: 3.29 µM (inactive)
GI50 [26]: 1.61 µM (inactive)
GI50 [27]: 2.34 µM (inactive)
GI50 [28]: 2.49 µM (inactive)
GI50 [29]: 1.98 µM (inactive)
GI50 [30]: 1.51 µM (inactive)
GI50 [31]: 1.78 µM (inactive)
GI50 [32]: 3.59 µM (inactive)
GI50 [33]: 4.56 µM (inactive)
GI50 [34]: 1.87 µM (inactive)
GI50 [35]: 1.55 µM (inactive)
GI50 [36]: 1.67 µM (inactive)
GI50 [37]: 2.61 µM (inactive)
GI50 [38]: 2.53 µM (inactive)
GI50 [39]: 3.44 µM (inactive)
GI50 [40]: 4.28 µM (inactive)
GI50 [41]: 3.13 µM (inactive)
GI50 [42]: 5.18 µM (inactive)
GI50 [43]: 2.49 µM (inactive)
GI50 [44]: 2.86 µM (inactive)
GI50 [45]: 4.61 µM (inactive)
GI50 [46]: 4.81 µM (inactive)
GI50 [48]: 1.01 µM (active)
GI50 [49]: 1.96 µM (inactive)
GI50 [50]: 2.69 µM (inactive)
GI50 [51]: 2.97 µM (inactive)
GI50 [52]: 2.43 µM (inactive)
GI50 [53]: 1.31 µM (inactive)
GI50 [54]: 2.16 µM (inactive)
GI50 [55]: 2.58 µM (inactive)
GI50 [56]: 1.93 µM (inactive)
GI50 [57]: 2.92 µM (inactive)
GI50 [58]: 2.3 µM (inactive)
GI50 [59]: 2.77 µM (inactive)
